In patent US5126337A, “Thiazetoquinoline-3-carboxylic acid derivative and a pharmaceutical composition comprising the same” (priority 1989, dated 1992):
≈ marks a conversion by molar mass, not a printed value. Where two headings read alike, the source gives them in different places.

Experiments:
Assay in all cases: Antibacterial spectrum, MIC by twofold agar dilution method
Format in all cases: cell-based
[1] = tested on: Klebsiella pneumoniae PCI-602; conditions: PCI602, 10^6 cfu/ml, standard laboratory strain, Gram -, 18 hrs at 37° C, read-out: MIC
Method: (§1) Minimum inhibitory concentrations (MIC) of test compounds were determined by the twofold agar dilution method (Chemotherapy, 29(1), 76(1981)). Overnight cultures in Mueller-Hinton broth were suspended by buffered saline gelatin. One loopful of the bacterial suspension (10^6 or 10^8 colony-forming units/ml) was incubated onto the plates containing test compounds. The plates were incubated for 18 hrs at 37° C. The MIC was defined by the lowest concentration of the drug that inhibited visible growth of bacteria.

[2] = tested on: Staphylococcuss aureus HPC 308; conditions: 10^6 cfu/ml; clinically isolated strain, Gram +; 18 hrs at 37° C
Method: as §1, with “Overnight” for “Minimum inhibitory concentrations (MIC) of test compounds were determined by the twofold agar dilution method (Chemotherapy, 29(1), 76(1981)). Overnight”

[3] = tested on: Enterobacter cloacae HNR 1941; conditions: HNR1941, 10^6 cfu/ml, clinically isolated strain, Gram -, 18 hrs at 37° C
Method: as §1, with “Overnight” for “Minimum inhibitory concentrations (MIC) of test compounds were determined by the twofold agar dilution method (Chemotherapy, 29(1), 76(1981)). Overnight”

[4] = tested on: Klebsiella pneumoniae HNR 828; conditions: HNR828, 10^6 cfu/ml, clinically isolated strain, Gram -, 18 hrs at 37° C
Method: as §1, with “Overnight” for “Minimum inhibitory concentrations (MIC) of test compounds were determined by the twofold agar dilution method (Chemotherapy, 29(1), 76(1981)). Overnight”

[5] = tested on: Enterococcus faecalis HPC 948; conditions: HPC948, 10^6 cfu/ml, clinically isolated strain, Gram +, 18 hrs at 37° C
Method: as §1, with “Overnight” for “Minimum inhibitory concentrations (MIC) of test compounds were determined by the twofold agar dilution method (Chemotherapy, 29(1), 76(1981)). Overnight”

[6] = tested on: Escherichia coli NIHJ JC-2; conditions: NIHJJC2, 10^6 cfu/ml, standard laboratory strain, Gram -, 18 hrs at 37° C
Method: as §1, with “Overnight” for “Minimum inhibitory concentrations (MIC) of test compounds were determined by the twofold agar dilution method (Chemotherapy, 29(1), 76(1981)). Overnight”

[7] = tested on: Staphylococcuss aureus HPC 527; conditions: 10^6 cfu/ml; clinically isolated strain, Gram +; 18 hrs at 37° C
Method: as §1, with “Overnight” for “Minimum inhibitory concentrations (MIC) of test compounds were determined by the twofold agar dilution method (Chemotherapy, 29(1), 76(1981)). Overnight”

[8] = tested on: Pseudomonas aeruginosa HNR 1537; conditions: HNR1537, 10^6 cfu/ml, clinically isolated strain, Gram -, 18 hrs at 37° C
Method: as §1, with “Overnight” for “Minimum inhibitory concentrations (MIC) of test compounds were determined by the twofold agar dilution method (Chemotherapy, 29(1), 76(1981)). Overnight”

[9] = tested on: Enterobacter cloacae HNR 1939; conditions: HNR1939, 10^6 cfu/ml, clinically isolated strain, Gram -, 18 hrs at 37° C
Method: as §1, with “Overnight” for “Minimum inhibitory concentrations (MIC) of test compounds were determined by the twofold agar dilution method (Chemotherapy, 29(1), 76(1981)). Overnight”

[10] = tested on: Klebsiella pneumoniae HNR 869; conditions: HNR869, 10^6 cfu/ml, clinically isolated strain, Gram -, 18 hrs at 37° C
Method: as §1, with “Overnight” for “Minimum inhibitory concentrations (MIC) of test compounds were determined by the twofold agar dilution method (Chemotherapy, 29(1), 76(1981)). Overnight”

[11] = tested on: Serratia marcescens HNR 1544; conditions: HNR1544, 10^6 cfu/ml, clinically isolated strain, Gram -, 18 hrs at 37° C
Method: as §1, with “Overnight” for “Minimum inhibitory concentrations (MIC) of test compounds were determined by the twofold agar dilution method (Chemotherapy, 29(1), 76(1981)). Overnight”

[12] = tested on: Serratia marcescens HNR 1767; conditions: HNR1767, 10^6 cfu/ml, clinically isolated strain, Gram -, 18 hrs at 37° C
Method: as §1, with “Overnight” for “Minimum inhibitory concentrations (MIC) of test compounds were determined by the twofold agar dilution method (Chemotherapy, 29(1), 76(1981)). Overnight”

[13] = tested on: Acinetobacter calcoaceticus HNR 939; conditions: HNR939, 10^6 cfu/ml, clinically isolated strain, Gram -, 18 hrs at 37° C
Method: as §1, with “Overnight” for “Minimum inhibitory concentrations (MIC) of test compounds were determined by the twofold agar dilution method (Chemotherapy, 29(1), 76(1981)). Overnight”

[14] = tested on: Staphylococuss aureus FDA 209PJC-1; conditions: 10^6 cfu/ml; standard laboratory strain, Gram +; 18 hrs at 37° C
Method: as §1, with “Overnight” for “Minimum inhibitory concentrations (MIC) of test compounds were determined by the twofold agar dilution method (Chemotherapy, 29(1), 76(1981)). Overnight”

[15] = tested on: Pseudomonas aeruginosa IFO 3445; conditions: IFO3445, 10^6 cfu/ml, standard laboratory strain, Gram -, 18 hrs at 37° C
Method: as §1, with “Overnight” for “Minimum inhibitory concentrations (MIC) of test compounds were determined by the twofold agar dilution method (Chemotherapy, 29(1), 76(1981)). Overnight”

[16] = tested on: Serratia marcescens IAM 1184; conditions: IAM1184, 10^6 cfu/ml, standard laboratory strain, Gram -, 18 hrs at 37° C
Method: as §1, with “Overnight” for “Minimum inhibitory concentrations (MIC) of test compounds were determined by the twofold agar dilution method (Chemotherapy, 29(1), 76(1981)). Overnight”

[17] = tested on: Pseudomonas aeruginosa HNR 1472; conditions: HNR1472, 10^6 cfu/ml, clinically isolated strain, Gram -, 18 hrs at 37° C
Method: as §1, with “Overnight” for “Minimum inhibitory concentrations (MIC) of test compounds were determined by the twofold agar dilution method (Chemotherapy, 29(1), 76(1981)). Overnight”

[18] = tested on: Enterobacter cloacae HNR 1946; conditions: HNR1946, 10^6 cfu/ml, clinically isolated strain, Gram -, 18 hrs at 37° C
Method: as §1, with “Overnight” for “Minimum inhibitory concentrations (MIC) of test compounds were determined by the twofold agar dilution method (Chemotherapy, 29(1), 76(1981)). Overnight”

[19] = tested on: Enterococcus faecalis HPC 975; conditions: HPC975, 10^6 cfu/ml, clinically isolated strain, Gram +, 18 hrs at 37° C
Method: as §1, with “Overnight” for “Minimum inhibitory concentrations (MIC) of test compounds were determined by the twofold agar dilution method (Chemotherapy, 29(1), 76(1981)). Overnight”

[20] = tested on: Acinetobacter calcoaceticus HNR 904; conditions: HNR904, 10^6 cfu/ml, clinically isolated strain, Gram -, 18 hrs at 37° C
Method: as §1, with “Overnight” for “Minimum inhibitory concentrations (MIC) of test compounds were determined by the twofold agar dilution method (Chemotherapy, 29(1), 76(1981)). Overnight”

Enterobacter cloacae 963 = conditions: 10^6 cfu/ml, standard laboratory strain, Gram -, 18 hrs at 37° C
Method: as §1, with “Overnight” for “Minimum inhibitory concentrations (MIC) of test compounds were determined by the twofold agar dilution method (Chemotherapy, 29(1), 76(1981)). Overnight”

[21] = tested on: Enterococcus faecalis HPC 984; conditions: HPC984, 10^6 cfu/ml, clinically isolated strain, Gram +, 18 hrs at 37° C
Method: as §1, with “Overnight” for “Minimum inhibitory concentrations (MIC) of test compounds were determined by the twofold agar dilution method (Chemotherapy, 29(1), 76(1981)). Overnight”

[22] = tested on: Acinetobacter calcoaceticus HNR 916; conditions: HNR916, 10^6 cfu/ml, clinically isolated strain, Gram -, 18 hrs at 37° C
Method: as §1, with “Overnight” for “Minimum inhibitory concentrations (MIC) of test compounds were determined by the twofold agar dilution method (Chemotherapy, 29(1), 76(1981)). Overnight”

[23] = tested on: Serratia marcescens HNR 1792; conditions: HNR1792, 10^6 cfu/ml, clinically isolated strain, Gram -, 18 hrs at 37° C
Method: as §1, with “Overnight” for “Minimum inhibitory concentrations (MIC) of test compounds were determined by the twofold agar dilution method (Chemotherapy, 29(1), 76(1981)). Overnight”

[24] = tested on: Pseudomonas aeruginosa HNR 1489; conditions: HNR1489, 10^6 cfu/ml, clinically isolated strain, Gram -, 18 hrs at 37° C
Method: as §1, with “Overnight” for “Minimum inhibitory concentrations (MIC) of test compounds were determined by the twofold agar dilution method (Chemotherapy, 29(1), 76(1981)). Overnight”

[25] = tested on: Klebsiella pneumoniae HNR 858; conditions: HNR858, 10^6 cfu/ml, clinically isolated strain, Gram -, 18 hrs at 37° C
Method: as §1, with “Overnight” for “Minimum inhibitory concentrations (MIC) of test compounds were determined by the twofold agar dilution method (Chemotherapy, 29(1), 76(1981)). Overnight”

[26] = tested on: Staphylococcuss aureus HPC 292
Method: as §1, with “Overnight” for “Minimum inhibitory concentrations (MIC) of test compounds were determined by the twofold agar dilution method (Chemotherapy, 29(1), 76(1981)). Overnight”

Row | SMILES | MIC [1] | MIC [2] | MIC [3] | MIC [4] | MIC [5] | MIC [6] | MIC [7] | MIC [8] | MIC [9] | MIC [10] | MIC [11] | MIC [12] | MIC [13] | MIC [14] | MIC [15] | MIC [16] | MIC [17] | MIC [18] | MIC [19] | MIC [20] | other results
1 | CC1Sc2c(C(=O)O)c(=O)c3cc(F)c(N4CCC(N(C)C)C4)c(F)c3n21 (stereo not drawn) [Example 36, 7-(3-Dimethylamino-1-pyrrolidinyl)-6,8-difluoro-1-methyl-4-oxo-1H,4H-[1,3]thiazeto[3,2-a]quinoline-3-carboxylic acid] | 0.025 µg/mL (≈ 0.0632 µM) | 1.56 µg/mL (≈ 3.95 µM) | 25 µg/mL (≈ 63.2 µM) | 12.5 µg/mL (≈ 31.6 µM) | 3.13 µg/mL (≈ 7.92 µM) | 0.1 µg/mL (≈ 0.253 µM) | 0.2 µg/mL (≈ 0.506 µM) | 100 µg/mL (≈ 253 µM) | 0.78 µg/mL (≈ 1.97 µM) | 6.25 µg/mL (≈ 15.8 µM) | 0.2 µg/mL (≈ 0.506 µM) | 25 µg/mL (≈ 63.2 µM) | 0.78 µg/mL (≈ 1.97 µM) | 0.2 µg/mL (≈ 0.506 µM) | 0.78 µg/mL (≈ 1.97 µM) | 0.2 µg/mL (≈ 0.506 µM) | 50 µg/mL (≈ 126 µM) | 0.78 µg/mL (≈ 1.97 µM) | 6.25 µg/mL (≈ 15.8 µM) | 12.5 µg/mL (≈ 31.6 µM) | MIC (Enterobacter cloacae 963): 0.2 µg/mL (≈ 0.506 µM); MIC [21]: 0.78 µg/mL (≈ 1.97 µM); MIC [22]: 0.1 µg/mL (≈ 0.253 µM); MIC [23]: 12.5 µg/mL (≈ 31.6 µM); MIC [24]: 0.78 µg/mL (≈ 1.97 µM); MIC [25]: 0.78 µg/mL (≈ 1.97 µM); MIC ([26]; 10^6 cfu/ml, clinically isolated strain, Gram +, 18 hrs at 37° C, read-out: MIC): 6.25 µg/mL (≈ 15.8 µM)
2 | CC1Sc2c(C(=O)O)c(=O)c3cc(F)c(N4CC[C@H](N(C)C)C4)c(F)c3n21 (stereo partly drawn) [Example 37, 7-((S)-3-Dimethylamino-1-pyrrolidinyl)-6,8-difluoro-1-methyl-4-oxo-1H,4H-[1,3]thiazeto[3,2-a]quinoline-3-carboxylic acid] | 0.05 µg/mL (≈ 0.126 µM) | 3.13 µg/mL (≈ 7.92 µM) | 25 µg/mL (≈ 63.2 µM) | 12.5 µg/mL (≈ 31.6 µM) | 3.13 µg/mL (≈ 7.92 µM) | 0.1 µg/mL (≈ 0.253 µM) | 0.2 µg/mL (≈ 0.506 µM) | 100 µg/mL (≈ 253 µM) | 0.78 µg/mL (≈ 1.97 µM) | 3.13 µg/mL (≈ 7.92 µM) | 0.2 µg/mL (≈ 0.506 µM) | 25 µg/mL (≈ 63.2 µM) | 1.56 µg/mL (≈ 3.95 µM) | 0.2 µg/mL (≈ 0.506 µM) | 0.78 µg/mL (≈ 1.97 µM) | 0.39 µg/mL (≈ 0.986 µM) | 50 µg/mL (≈ 126 µM) | 1.56 µg/mL (≈ 3.95 µM) | 12.5 µg/mL (≈ 31.6 µM) | 25 µg/mL (≈ 63.2 µM) | MIC (Enterobacter cloacae 963): 0.2 µg/mL (≈ 0.506 µM); MIC [21]: 0.78 µg/mL (≈ 1.97 µM); MIC [22]: 0.2 µg/mL (≈ 0.506 µM); MIC [23]: 12.5 µg/mL (≈ 31.6 µM); MIC [24]: 0.78 µg/mL (≈ 1.97 µM); MIC [25]: 0.78 µg/mL (≈ 1.97 µM); MIC ([26]; 18 h): 6.25 µg/mL (≈ 15.8 µM)
